Read-outs that look alike come from different tables or passages of the source.
Tests used:
[1] = Cytotoxicity in mock-infected HI-HeLa cells (antirhinoviral assay, XTT); type: cell-based; settings: human
[2] = tested on: Human Rhinovirus-serotype 10 (HRV-10); assay: Normal Human Bronchial Epithelial Cell Assay (MTT); type: cell-based; settings: normal human bronchial cells, HRV-10 at m.o.i. 10, 3-4 days at 34° C., read-out: ED50 (the source's name)
Protocol: Normal human bronchial cells were obtained from cadavers and cultured. The cells were plated at 2×10^4 per well in a […] plate. They were allowed to adhere and grow for 24 hours in 200 μL of serum-free bronchial/tracheal epithelial cell growth medium at 37° C. with 5% CO2. Human Rhinovirus-serotype 10 (HRV-10) was purchased from American Type Culture Collection (ATCC). To start the assay, the supernatant was removed, and HRV-10 at an m.o.i. of 10 (virus particles/cell) was added to each well along with the appropriate amount of compound of formula I or II. The plate was then incubated at 34° C. After 3 hours the supernatant was removed, and 200 μL of media was added along with the same concentration of compound as used in the beginning of the assay. The plates were incubated for 3-4 days at 34° C. To determine the amount of cell growth, an MTT assay (0.5 mgs/mL), as described in Mosmann, T. J. J. Immunol. Methods 1983, 65, 55-63, which is incorporated herein by reference, was performed on the cells, and the plate was read at an optical density of 540 nm. The compounds were tested against control compound Pirodavir, obtained from Janssen Pharmaceuticals. The EC50 was measured as described above for the HI-HeLa Cell Culture Assay.

[3] = tested on: HRV-14; assay: Antirhinoviral HI-HeLa Cell Culture Assay (Cell Protection Assay, XTT dye reduction); type: cell-based, human rhinovirus (HRV) serotype-14; settings: HI-HeLa cells infected with HRV-14, m.o.i. 0.13, two days, XTT, read-out: EC50
How it was run: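 HI-HeLa cells infected with HRV-14 at m.o.i. 0.13 or mock-infected, then incubated with compounds for two days. Cell protection read by XTT/PMS formazan at 450/650 nm; therapeutic index = CC50/EC50.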

[4] = target: T1, Recombinant Rhinovirus 3C protease (RVP) serotype-14 (Human rhinovirus 14, UniProt P03303); assay: Inhibition of Rhinovirus Protease (fluorescence resonance energy transfer assay), serotype 14; type: biochemical, human rhinovirus (HRV); settings: for kinact/KI: pH 7.6, read-out: kobs/I; for kobs/I: progress curves in enzyme start experiments
T1 construct: Recombinant Rhinovirus 3C proteases from serotypes 14, 16, 2 or 89; made in house

[5] = Cytotoxicity in mock-infected HI-HeLa cells (anticoxsackieviral assay, XTT); type: cell-based; settings: human; mock-infected HI-HeLa cells; one day; XTT
Protocol: (§1) The ability of compounds to protect calls against CVB-3 infection was measured by the XTT dye reduction method, which is described in Weislow, O. S., R. Kiser, D. L. Fine, J. Bader, R. H. Shoemaker, and M. R. Boyd, 1989, J. Natl. Cancer Inst. 81:577-586, which is incorporated herein by reference. Specifically, HI-HeLa cells were infected wtih […] at a multiplicity of infection (m.o.i.) of 0.08 or mock-infected with medium only. Infected or mock-infected cells were resuspended at 8×10^5 cells per mL and incubated with appropriate concentrations of compound. One day later, XTT/PMS were added to test plates and the amount of formazan produced was quantified spectrophotometrically at 450/650 nm. […] The therapeutic index (TI) was calculated by dividing the CC50 by the EC50.
(§2) The Coxsackie strain B-3 (CVB-3) was purchased from American Type Culture Collection (ATCC). Virus stocks were propgated and antiviral assays were performed in Hi-HeLa cells (ATCC). Cells were grown in Minimal Essential Medium with 10% fetal bovine serum.

[6] = tested on: CVB-3; assay: Anticoxsackieviral HI-HeLa Cell Culture Assay (XTT dye reduction); type: cell-based, Coxsackie strain B-3 (CVB-3); settings: HI-HeLa cells infected with CVB-3, m.o.i. 0.08, one day
Protocol: Specifically, HI-HeLa cells were infected wtih […] at a multiplicity of infection (m.o.i.) of 0.08 or mock-infected with medium only. Infected or mock-infected cells were resuspended at 8×10^5 cells per mL and incubated with appropriate concentrations of compound. One day later, XTT/PMS were added to test plates and the amount of formazan produced was quantified spectrophotometrically at 450/650 nm. […] The therapeutic index (TI) was calculated by dividing the CC50 by the EC50.
as §2

[7] = tested on: HI-HeLa cells; assay: Cytotoxicity in mock-infected HI-HeLa cells (anticoxsackieviral assay, XTT); type: cell-based
Protocol: as §1, §2

[8] = tested on: HI-HeLa cells; assay: Cytotoxicity in mock-infected HI-HeLa cells (antirhinoviral assay, XTT); type: cell-based
[9] = mock-infected HI-HeLa cells, two days, XTT, read-out: CC50
[10] = mock-infected HI-HeLa cells, one day, XTT, read-out: CC50
[11] = RVP serotype-14, 10 minute preincubation, substrate start, read-out: INHIB (Ki)

T1 sequence (P03303 1538-1719): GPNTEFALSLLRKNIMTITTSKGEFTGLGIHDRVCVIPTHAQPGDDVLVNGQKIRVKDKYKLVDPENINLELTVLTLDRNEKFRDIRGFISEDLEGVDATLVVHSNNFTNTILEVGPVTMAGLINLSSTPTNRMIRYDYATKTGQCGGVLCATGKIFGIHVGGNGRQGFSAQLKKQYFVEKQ

| Compound | CC50 at 2 days [1, 9] | EC50 ([3]; Rhinovirus B, HRV14, 48 h) | Ki [4] | kinact/KI [4] | CC50 [7, 10] | EC50 [6] | EC50 [3] | kobs/I ([4]; RVP serotype-14) | further results |
| --- | --- | --- | --- | --- | --- | --- | --- | --- | --- |
| CC(C)C[C@H](NC(=O)OCc1ccccc1)C(=O)N[C@@H](Cc1ccccc1)C(=O)N[C@H](/C=C/C(=O)N1CCc2ccccc21)CCC(N)=O [Compound 85] | > 320 µM | 16 µM | 3 µM | 6500 M⁻¹ s⁻¹ |  |  |  |  | EC50 ([2]; Epithelial cell): 0.005 µM |
| CON(C)C(=O)/C=C/[C@H](CCC(N)=O)NC(=O)[C@H](Cc1ccccc1)NC(=O)[C@H](CC(C)C)NC(=O)OCc1ccccc1 [Compound 37] | > 100 µM | 4 µM | 18.8 µM | 5900 M⁻¹ s⁻¹ |  |  |  |  | CC50 at 1 day [5]: > 100 µM; EC50 ([6]; 24 h): 17.8 µM |
| Cc1cc(CCCCCOc2c(Cl)cc(C3=NCCO3)cc2Cl)on1 [WIN 54954, reference compound] |  |  |  |  | > 100 µM | > 100 µM | 2.13 µM |  | CC50 [8, 9]: > 63 µM |
| CC(C)C[C@H](NC(=O)OCc1ccccc1)C(=O)N[C@@H](Cc1ccccc1)C(=O)N[C@H](/C=C/C(=O)N1CCCC1)CCC(N)=O [Compound 21, 1-Pyrrolidin-1-yl-3-(CBZ-L-Leu-L-Phe-L-Gln)-E-Propenone] | > 100 µM | 22.4 µM | 9.9 µM | 2100 M⁻¹ s⁻¹ |  |  |  |  | CC50 at 1 day [5]: > 320 µM; EC50 ([6]; 24 h): 158 µM |
| COC(=O)/C=C/[C@H](CCC(N)=O)NC(=O)[C@H](Cc1ccccc1)NC(=O)[C@H](CC(C)C)NC(=O)OCc1ccccc1 [Compound 11, Methyl-3-(CBZ-L-Leu-L-Phe-L-Gln)-E-Propenoate] |  |  |  |  | > 320 µM | 8.9 µM | 1.3 µM | 20,000 M-1 sec-1 | CC50 [8]: > 320 µM; EC50 [2]: 0.0007 µM; Ki [4, 11]: 28 µM |
| CCOC(=O)/C=C/[C@H](CNC(C)=O)NC(=O)[C@H](Cc1ccccc1)NC(=O)[C@H](CC(C)C)NC(=O)OCc1ccccc1 [Compound 4, Ethyl-3-[CBZ-L-Leu-L-Phe-L-(N-Ac-amino)-Ala]-E-Propenoate] |  |  |  |  |  |  | 2.2 µM | 790 M⁻¹ s⁻¹ | CC50 [8]: > 320 µM; EC50 [2]: 0.15 µM; INHIB (percent inhibition) ([4]; RVP serotype-14, 0.5 μM compound, 10 minute preincubation with 50 nM RVP): 49(0.5) percent |
| Ethyl-3-[CBZ-L-Leu-L-Phe-L-[N-(2-pyrrolidinone)]-Ala]-E-Propenoate [Compound 5] |  |  |  |  |  |  | 1.6 µM | 221 M⁻¹ s⁻¹ | CC50 [8]: 251 µM; EC50 [2]: 0.001 µM; Ki [4, 11]: 7.1 µM |
| CC(C)C[C@H](NC(=O)OCc1ccccc1)C(=O)N[C@@H](Cc1ccccc1)C(=O)N[C@H](/C=C/C(=O)N(C)C)CCC(N)=O [Compound 22, N,N-Dimethyl-3-(CBZ-L-Leu-L-Phe-L-Gln)-E-Propenamide] | 251 µM | 56.2 µM | 4.3 µM | 1300 M⁻¹ s⁻¹ |  |  |  |  | melting point: 174 to 175 °C (dec.) |
| CCOC(=O)c1ccc(OCCC2CCN(c3ccc(C)nn3)CC2)cc1 [Pirodavir, reference compound] |  | 0.03 µM |  |  |  |  |  |  | CC50 at 1 day [5]: > 100 µM; CC50 at 2 days [1]: > 10 µM; EC50 ([6]; 24 h): > 100 µM; EC50 ([2]; Epithelial cell): 0.0075 µM |
| CCOC(=O)/C(F)=C\[C@H](CCC(N)=O)NC(=O)[C@H](Cc1ccccc1)NC(=O)[C@H](CC(C)C)NC(=O)OCc1ccccc1 [Compound 8, Ethyl-2-Fluoro-3-(CBZ-L-Leu-L-Phe-L-Gln)-E-Propenoate] | > 320 µM | > 320 µM | 36 µM | 61 M⁻¹ s⁻¹ |  |  |  |  | melting point: 210 to 211 °C |
| CCOC(=O)/C=C/[C@H](CC[S+](C)[O-])NC(=O)[C@H](Cc1ccccc1)NC(=O)[C@H](CC(C)C)NC(=O)OCc1ccccc1 (stereo partly drawn) [Compound 12, Ethyl-3-[CBZ-L-Leu-L-Phe-L-Met(sulfoxide)]-E-propenoate] | > 100 µM | 1.6 µM | 4.3 µM | 2200 M⁻¹ s⁻¹ |  |  |  |  | EC50 ([2]; Epithelial cell): 0.004 µM |
| CC(C)C[C@H](NC(=O)OCc1ccccc1)C(=O)N[C@@H](Cc1ccccc1)C(=O)N[C@H](/C=C/c1ccccn1)CCC(N)=O [Compound 23] |  |  |  |  | > 100 µM | > 100 µM | > 100 µM | 120 M⁻¹ s⁻¹ | CC50 [8, 9]: > 100 µM; Ki [4, 11]: 177 µM |
| CC(C)C[C@H](NC(=O)OCc1ccccc1)C(=O)N[C@@H](Cc1ccccc1)C(=O)N[C@H](/C=C/C(=O)c1ccccc1)CCC(N)=O [Compound 24, 1-Phenyl-3-(CBZ-L-Leu-L-Phe-L-Gln)-E-Propenone] |  |  |  |  | 10 µM | 10 µM | 4 µM | 500,000 M-1 sec-1 | CC50 [8, 9]: 16 µM |
| CCOC(=O)/C=C/[C@H](CCC(N)=O)NC(=O)[C@H](Cc1ccc(F)cc1)NC(=O)c1cc2c(OC)cccc2[nH]1 [Compound 27] |  |  |  |  | 103 µM | 20 µM | 3.5 µM | 3,000 M-1 sec-1 | CC50 [8, 9]: 160 µM; EC50 [2]: 0.07 µM; Ki [4, 11]: 20 µM |
| CC(C)C[C@H](NC(=O)OCc1ccccc1)C(=O)N[C@@H](Cc1ccccc1)C(=O)N[C@H](/C=C/C(=O)N1CC=CC1)CCC(N)=O [Compound 41] |  |  |  |  |  | > 100 µM | 56 µM | 8,464 M-1 sec-1 | CC50 [7]: > 100 µM; CC50 [8]: 56 µM |
